# Reference: the NIST ThermoML archive (doi:10.1016/j.jct.2014.04.014)
# Numbers after ± are expanded uncertainties.
# Assay: wn = mass fraction of the nth substance listed
# Conditions: 273.15 K, 102.5 kPa, Liquid; for viscosity: Capillary tube (Ostwald / Ubbelohde) method; for mass density: Pycnometric method
compound,measurement,setting,value
[Cl-].[Na+] [sodium chloride] + O,viscosity,w1 = 0.2625,2.16 ± 0.05 mPa·s
same,mass density,w1 = 0.2625,1201 ± 1 kg/m3
O=[PH2][O-].[Na+] [sodium phosphinate] + O,viscosity,w1 = 0.478,73.88 ± 1.9 mPa·s
same,mass density,w1 = 0.478,1384 ± 1 kg/m3
[Cl-].[Cl-].[Zn+2] [zinc chloride] + O,viscosity,w1 = 0.666,135.4 ± 4.5 mPa·s
same,mass density,w1 = 0.666,1943 ± 3 kg/m3
O=[PH2][O-].O=[PH2][O-].[Zn+2] [zinc(II) phosphinate] + O,viscosity,w1 = 0.1379,2.95 ± 0.06 mPa·s
same,mass density,w1 = 0.1379,1069 ± 1 kg/m3
